Measured values: US10626103B2, “Inhibitor of lysine specific demethylase-1” (CELGENE QUANTICEL RESEARCH, INC., priority 2014, dated 2020)

Columns and labels:
[1] = tested on: Kasumi-1 AML cancer cell line; test: Kasumi-1 AML cell line proliferation assay (Cell-MTS assay); format: cell-based; conditions: Homo sapiens, Kasumi-1 cells, 168 hours
Text: Colorimetric cellular assay to assess the ability of LSD-1 small molecule inhibitors to effect the proliferation of the established AML cancer cell line Kasumi-1.
This Cell-MTS assay is a 7-day plate based colorimetric assay which quantifies the amount of newly generated NADH in the presence and absence of test compound. These NADH levels are used as a proxy for the quantification of cancer cell proliferation.
The established cancer cell line Kasumi-1 with a verified p53 mutation were purchased from American Type Culture Collection (ATCC) and routinely passaged according to ATCC published protocols. For routine assay these cells were seeded at a density of 20,000 cells per 96-well. 24 hours after plating, cells received an 11 point dilution of test compound with final concentration ranges from 100 LM to 2.0 nM. Cells are incubated in the presence of compound for 168 hours at 37° C., 5% CO2. At the end of this compound incubation period, 80 μl of media is removed and 20 μL of CellTiter 96® AQueous Non-Radioactive Cell Proliferation Assay solution (Promega) is added. The cells are incubated until the OD490 is >0.6. IC50 values are calculated using the IDBS XLfit software package and include background subtracted OD490 values and normalization to DMSO controls.
Table 5 provides the Kasumi-1 cellular IC50 values of various substituted heterocyclic compounds disclosed herein.

[2] = target: full-length human LSD1 (Homo sapiens (Human), UniProt O60341); test: In vitro enzyme inhibition assay LSD-1 (TR-FRET); format: biochemical; conditions: H3K4me1-biotin peptide
Procedure, shortened: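 Demethylase activity of full-length human LSD1 was detected by TR-FRET after 1 hour incubation at room temperature. Excitation was at 320 nm, with emission at 615 nm and 665 nm. IC50 values were derived from the inhibition data.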

[3] = tested on: CD11b expression in THP-1 (AML) cells; test: LSD1 CD11b cellular assay (flow cytometry); format: cell-based; conditions: Homo sapiens, 96 h, THP-1 cells, 4 days
Procedure, shortened: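 THP-1 cells were exposed to serially diluted compounds (0.2% DMSO final) for 4 days at 37 °C. CD11b expression was measured by flow cytometry with DAPI staining. The percent of CD11b-positive cells per concentration gave the IC50 curve.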

SMILES	IC50 [1] [µM]	IC50 [2] [µM]	IC50 [3] [µM]
COc1ccc(-n2c(-c3ccc(C#N)c(F)c3)nc(C(=O)N3CCC[C@@H](N)C3)c2C)cc1 [Example 12, 4-[4-[(3R)-3-aminopiperidine-1-carbonyl]-1-(4-methoxyphenyl)-5-methylimidazol-2-yl]-2-fluorobenzonitrile]	≤ 0.1	–	–
COc1ccc(-n2c(-c3ccc(C#N)c(F)c3)nc(C(=O)N3CCC[C@@H](N)C3)c2C)cc1F [Example 16, 4-[4-[(3R)-3-aminopiperidine-1-carbonyl]-1-(3-fluoro-4-methoxyphenyl)-5-methylimidazol-2-yl]-2-fluorobenzonitrile]	≤ 0.1	–	–
COc1ccc(-n2c(-c3ccc(C#N)c(F)c3)nc(C(=O)N3CC[C@H](N)C3)c2C)cc1F [Example 18, 4-[4-[(3S)-3-aminopyrrolidine-1-carbonyl]-1-(3-fluoro-4-methoxyphenyl)-5-methylimidazol-2-yl]-2-fluorobenzonitrile]	≤ 0.1	–	–
Cn1nc2ccc(-n3c(-c4ccc(C#N)c(F)c4)nc(C(=O)N4CCC[C@@H](N)C4)c3Cl)cc2c1Cl [Example 76, 4-[4-[(3R)-3-Aminopiperidine-1-carbonyl]-5-chloro-1-(3-chloro-2-methylindazol-5-yl)imidazol-2-yl]-2-fluorobenzonitrile]	≤ 0.1	< 0.1	< 0.1
COc1ccc(-n2c(-c3ccc(C#N)c(F)c3)nc(C(=O)N3CC(CN)C3)c2C)cc1F [Example 88, 4-[4-[3-(Aminomethyl)azetidine-1-carbonyl]-1-(3-fluoro-4-methoxyphenyl)-5-methylimidazol-2-yl]-2-fluorobenzonitrile]	≤ 0.1	–	–
Cc1c(C(=O)N2CC[C@H](N(C)C)C2)nc(-c2ccc(C#N)c(F)c2)n1-c1ccc2nn(C)cc2c1 [Example 94, 4-[4-[(3S)-3-(Dimethylamino)pyrrolidine-1-carbonyl]-5-methyl-1-(2-methylindazol-5-yl)imidazol-2-yl]-2-fluorobenzonitrile]	≤ 0.1	–	–
CN[C@H]1CCN(C(=O)c2cn(-c3ccc4nn(C)c(Cl)c4c3)c(-c3ccc(C#N)c(F)c3)n2)C1 [Example 113, 4-[1-(3-Chloro-2-methylindazol-5-yl)-4-[(3S)-3-(methylamino)pyrrolidine-1-carbonyl]imidazol-2-yl]-2-fluorobenzonitrile]	–	< 0.1	< 0.1
Cn1nc2ccc(-n3cc(C(=O)N[C@@H]4CCCNC4)nc3-c3ccc(C#N)c(F)c3)cc2c1Cl [Example 114, 1-(3-Chloro-2-methylindazol-5-yl)-2-(4-cyano-3-fluorophenyl)-N-[(3R)-piperidin-3-yl]imidazole-4-carboxamide]	–	< 0.1	< 0.1
CN[C@@H]1CCCN(C(=O)c2cn(-c3ccc4nn(C)c(Cl)c4c3)c(-c3ccc(C#N)c(F)c3)n2)C1 [Example 115, 4-[1-(3-Chloro-2-methylindazol-5-yl)-4-[(3R)-3-(methylamino)piperidine-1-carbonyl]imidazol-2-yl]-2-fluorobenzonitrile]	–	< 0.1	< 0.1
CN[C@H]1CCCN(C(=O)c2cn(-c3ccc4nn(C)c(Cl)c4c3)c(-c3ccc(C#N)c(F)c3)n2)C1 [Example 116, 4-[1-(3-Chloro-2-methylindazol-5-yl)-4-[(3S)-3-(methylamino)piperidine-1-carbonyl]imidazol-2-yl]-2-fluorobenzonitrile]	–	< 0.1	< 0.1
Cc1c(C(=O)N[C@@H]2CCCNC2)nc(-c2ccc(C#N)c(F)c2)n1-c1ccc2nn(C)c(Cl)c2c1 [Example 117, 1-(3-Chloro-2-methylindazol-5-yl)-2-(4-cyano-3-fluorophenyl)-5-methyl-N-[(3R)-piperidin-3-yl]imidazole-4-carboxamide]	–	< 0.1	< 0.1

Now from value to compound:

IC50 [1] [µM]	IC50 [2] [µM]	IC50 [3] [µM]	SMILES
≤ 0.1	< 0.1	< 0.1	COc1ccc(-n2c(-c3ccc(C#N)c(F)c3)nc(C(=O)N3CC[C@H](N)C3)c2C)cc1 [Example 14, 4-[4-[(3S)-3-aminopyrrolidine-1-carbonyl]-1-(4-methoxyphenyl)-5-methylimidazol-2-yl]-2-fluorobenzonitrile]
≤ 0.1	< 0.1	< 0.1	CN[C@H]1CCN(C(=O)c2nc(-c3ccc(C#N)c(F)c3)n(-c3ccc(OC)c(F)c3)c2C)C1 [Example 64, 2-Fluoro-4-[1-(3-fluoro-4-methoxyphenyl)-5-methyl-4-[(3S)-3-(methylamino)pyrrolidine-1-carbonyl]imidazol-2-yl]benzonitrile]
≤ 0.1	< 0.1	< 0.1	COc1ccc(-n2c(-c3ccc(C#N)c(F)c3)nc(C(=O)N3CCC[C@@H](N)C3)c2F)cc1F [Example 67, 4-[4-[(3R)-3-Aminopiperidine-1-carbonyl]-5-fluoro-1-(3-fluoro-4-methoxyphenyl)imidazol-2-yl]-2-fluorobenzonitrile]
≤ 0.1	< 0.1	< 0.1	CN[C@@H]1CCCN(C(=O)c2nc(-c3ccc(C#N)c(F)c3)n(-c3ccc(OC)cc3)c2C)C1 [Example 70, 2-Fluoro-4-[1-(4-methoxyphenyl)-5-methyl-4-[(3R)-3-(methylamino)piperidine-1-carbonyl]imidazol-2-yl]benzonitrile]
≤ 0.1	< 0.1	< 0.1	Cc1c(C(=O)N2CC[C@H](N(C)C)C2)nc(-c2ccc(C#N)c(F)c2)n1-c1ccc2nn(C)c(Cl)c2c1 [Example 96, 4-[1-(3-Chloro-2-methylindazol-5-yl)-4-[(3S)-3-(dimethylamino)pyrrolidine-1-carbonyl]-5-methylimidazol-2-yl]-2-fluorobenzonitrile]
–	< 0.1	< 0.1	CN[C@H]1CCN(C(=O)c2nc(-c3ccc(C#N)c(F)c3)n(-c3cc4c(Cl)n(C)nc4cc3F)c2C)C1 [Example 111, 4-[1-(3-Chloro-6-fluoro-2-methylindazol-5-yl)-5-methyl-4-[(3S)-3-(methylamino)pyrrolidine-1-carbonyl]imidazol-2-yl]-2-fluorobenzonitrile]
